Measured values published in patent US20050084528A1, “Anti-platelet aggregation compositions” (priority 2003, published 2005).
Read-outs that look alike come from different tables or passages of the source.

Legend:
[1] = system: platelet aggregation induced by AA; details: Saeed et al. 1998; cited from earlier work
[2] = system: platelet aggregation induced by PAF; details: Saeed et al. 1998; cited from earlier work
[3] = system: platelet aggregation induced by AA; assay: Ex vivo platelet aggregation in platelet rich plasma of volunteers after a single oral dose, induced by arachidonic acid (1.6 mM); design: species or system human; details: for inhibition of platelet aggregation induced by AA (in words): single oral dose, 24 hours
Description: (§1) The PRP samples were treated in vitro with calcium ionophore (A23187, 2.5 μM) or arachidonic acid (AA, 1.6 mM) to induce maximal aggregation. Platelet aggregation was monitored using a Dual-channel Lumi-aggregometer (Model 400, Chronolog Corporation, USA) using 0.45 ml samples of PRP. The resulting aggregation was recorded for all of the samples and a comparison was made between the pre- and post-test drug ingestion aggregation levels. The data was analysed using the Student's t-test and differences were considered significant when probability (p) was <0.05.

[4] = system: platelet aggregation induced by A23187; assay: Ex vivo platelet aggregation in platelet rich plasma of volunteers after a single oral dose, induced by calcium ionophore A23187 (2.5 μM); design: species or system human; details: for % Inhibition A23187: aspirin 10 mg single oral dose, blood 24 hours after ingestion vs pre-dose, PRP, A23187 2.5 μM; for inhibition of platelet aggregation induced by A23187 (in words): single oral dose, 24 hours
Description: as §1

[5] = system: platelet aggregation induced by adrenaline; details: Saeed et al. 1998; cited from earlier work
[6] = aspirin at a dose of 20 mg or 40 mg
[7] = nimesulide at doses of 25 or 50 mg

| SMILES | inhibition of platelet aggregation induced by AA (in words) [1] | inhibition of platelet aggregation induced by PAF (in words) [2] | % Inhibition AA ([3]; aspirin 10 mg single oral dose, blood 24 hours after ingestion vs pre-dose, PRP, AA 1.6 mM) [%] | inhibition of platelet aggregation induced by AA (in words) ([3]; aspirin 10 mg) | inhibition of platelet aggregation induced by AA (in words) [3, 6] | % Inhibition A23187 [4] [%] | % Inhibition A23187 ([4]; listed as aspirin) | inhibition of platelet aggregation induced by A23187 (in words) [4, 6] | inhibition of platelet aggregation induced by AA (in words) [3, 7] | inhibition of platelet aggregation induced by A23187 (in words) [4, 7] | inhibition of platelet aggregation induced by adrenaline (in words) [5] |
| --- | --- | --- | --- | --- | --- | --- | --- | --- | --- | --- | --- |
| CC(=O)Oc1ccccc1C(=O)O [Aspirin, 2-acetoxybenzoic acid] | inhibit | inhibit | 4 | ineffective | effectively inhibited | 27 | about 25% | effectively inhibited |  |  |  |
| CS(=O)(=O)Nc1ccc([N+](=O)[O-])cc1Oc1ccccc1 [Nimesulide, N-(4-nitro-2-phenoxyphenyl)methanesulfonamide] | inhibit | inhibit |  |  |  |  |  |  | effectively inhibited | effectively inhibited | inhibits |
